These results are taken from patent publication US8329703B2, “Pyrazole compounds” (XTL Biopharmaceuticals Ltd., priority 2005, dated 2012).

Values joined by “and” are separate entries in the source; they are usually repeats but may differ in a detail not shown here. Equal entries are not always repeated. Where two headings read alike, the source gives them in different places.

For series [1], the system named is HCV RNA (HCV Replicon) in Huh-Luc-Neo cells. The experiment in a line: HCV Replicon RNA Assay (Taqman quantitative PCR). Format: cell-based. The conditions noted are these: 2 compound treatments over 48 h, no unit printed in table (b307 gives IC50s in μM). On the procedure:
(§1) The identification of inhibitors of HCV replication and/or proliferation has been facilitated by the development of a cell based system to study HCV replication and assay for HCV inhibitors. Inhibition of HCV replication may be performed using the HCV Replicon Assay developed in the laboratories of Bartenschlager (Lohman et al, Science 285, 110-113, 1999) and Rice (Blight et al, Science 290, 1972-1974, 2000). The assay is performed using the Huh-Luc-Neo cell line (Lohman et al, Science 285, 110-113, 1999). Huh-Luc-Neo cells are a human hepatoma cell line (Huh-7) stably expressing a bi-cistronic subgenomic replicon containing the HCV IRES in which the […] of HCV had been deleted and replaced by a construct containing sequences coding for the firefly luciferase reporter gene, the neomycin selectable marker and the EMCV IRES to direct expression of a truncated HCV genome expressing the […] NS3, NS4A, NS4B, NS5A, and NS5B. HCV targets through which inhibitors could act to inhibit replication include the NS3 protease, the helicase/ATPase, NS5A, the NS5B-RNA dependent RNA polymerase, and the HCV IRES.
(§2) Expression of HCV IRES driven luciferase reporter activity and HCV RNA is measured to obtain indirect and direct measures of replication of HCV RNA respectively. Inhibitors of HCV replication and/or proliferation are determined by initially identifying molecules that inhibit expression of the HCV IRES driven luciferase reporter in this HCV Replicon Luciferase Assay. Cell viability assays and control cell based luciferase assays are then run on hits identified in the HCV Replicon Luciferase Assay to eliminate cytoxic compounds and non-specific compounds which act by inhibiting the luciferase enzyme.
Day 0, Cell Seeding and Compound Treatment: Huh-Luc-Neo Cells are seeded at 25,000/well in an opaque-walled 96 plate with Growth Medium (DMEM phenol red free+PS+2 mM glutamine; 100 μl/well). The compounds to be tested are added to the experimental wells (10 μl/well at 10× assay concentration) and the cells are then incubated (5% CO2, 37° C.).
Day 1, Media Change and Compound Treatment: 24 hours after the initial compound treatment the cell culture media is aspirated from the wells and fresh Growth Medium is added (DMEM phenol red free+PS+2 mM glutamine; 100 μl/well). The compounds to be tested are then added to the appropriate experimental wells (10 μl/well at 10× assay concentration) and the cells are then incubated (5% CO2, 37° C.) for an additional 24 hrs.
Day 2, RNA Isolation and cDNA Synthesis: The cells are washed with 1× Phosphate Buffered Saline (PBS) once.
(§3) Day 3, Quantitative PCR Based Measurement of HCV RNA (Taqman Assay): Quantitative PCR analysis to measure HCV RNA expression from cDNA synthesized on Day 2 is performed using the ABI 9700 HT Sequence Detection System (Applied Biosystems) as previously described (Lohman et al, Science 285, 110-113, 1999). The data is analyzed and IC50s are determined using GraphPad Prism 4 software. Hits validated in the Replicon RNA Assay have IC50s<8.0 μM and show <30% inhibition of Cell Viability at a compound concentration of 50 μM (Cell Titer Glow Assay, cell viability assay conditions identical to HCV Replicon RNA Assay conditions).

For another series, the system named is Huh-Luc-Neo cells. Nature of the series: Cell Titer-Glo Cell Viability Assay. The format is cell-based, human. The settings on record: for Toxicity % Inhibition at 50 μM (2 doses): inhibition of cell viability at 50 μM, conditions identical to HCV Replicon RNA Assay; for Toxicity % Inhibition at 100 μM (1 dose): inhibition of cell viability at 100 μM, conditions identical to HCV Replicon Luciferase Assay (48 h). As for the experimental part:
(§4) Day 2, Reagent Preparation and Luciferase Assay: The Bright-Glo Luciferase Assay Buffer (Promega) is thawed and equilibrated to room temperature prior to use. The lyophilized Bright-Glo Luciferase Assay Substrate is equilibrated to room temperature prior to use. 10 ml of Bright-Glo Luciferase Assay Buffer is transferred to 1 vial of Bright-Glo Luciferase Assay Substrate bottle and mixed by gently with a Vortex. 100 ul of Bright-Glo Luciferase Assay reagent (Bright-Glo Luciferase Assay Buffer+Bright-Glo Luciferase Assay Substrate Mixture) is added to each well. The well contents are mixed for 5 min. on an orbital shaker at room temperature to induce cell lysis and the luminescence is then measured using a luminometer. The data is analyzed and IC50s are determined using GraphPad Prism 4 software. Hits validated in the Replicon Luciferase assay have IC50s<8.0 μM and show <30% inhibition of Cell Viability at a compound concentration of 100 μM (Cell Titer Glow Assay, cell viability assay conditions identical to HCV Replicon Luciferase Assay conditions).
as §3
Day 0, Cell Seeding and Compound Treatment: Huh-Luc-Neo Cells are seeded at 25,000/well in an opaque-walled 96 plate with Growth Medium (DMEM phenol red free+PS+2 mM glutamine; 100 ul/well).
Day 2, Reagent Preparation and Assay: The CellTiter-Glo Buffer is thawed and equilibrated to room temperature prior to use. The lyophilized CellTiter-Glo Substrate is equilibrated to room temperature prior to use. 10 ml of CellTiter-Glo Buffer is transferred to 1 vial of CellTiter-Glo Substrate and mixed by gently with a Vortex. 100 μl of CellTiter-Glo Assay reagent (CellTiter-Glo Buffer+CellTiter-Glo Substrate Mixture) is added to each well. The well contents are mixed for 5 min. on an orbital shaker at room temperature to induce cell lysis and the luminescence is then measured using a luminometer.

The test system of series [2] is HCV Replicon (HCV IRES driven luciferase reporter) in Huh-Luc-Neo cells. Nature of the series: HCV Replicon Luciferase Assay. The format is cell-based. The conditions noted are these: 48 h, Huh-Luc-Neo cells, no unit printed in table (b301 gives IC50s in μM), read-out: Luciferase IC50. As for the experimental part: as §1, §2
Day 0, Cell Seeding and Compound Treatment: Huh-Luc-Neo Cells are seeded at 25,000/well in an opaque-walled 96 plate with Growth Medium (DMEM phenol red free+PS+2 mM glutamine; 100 μl/well). The compounds to be tested are added to the experimental wells (10 μl/well at 10× assay concentration) and the cells are then incubated (5% CO2, 37° C.) for 48 h.
as §4

Regarding `Cc1ccc(O)c(-c2nn(C)cc2C#CC2=CCCCC2)c1` [VQ_23307], the midpoint of inhibition in series [1] (Hepatitis C virus, 48 h), the IC50, lay at 8.1 µM. For the same molecule, in the series with Huh-Luc-Neo cells, the “Toxicity % Inhibition at 50 μM (2 doses)” value was 14.8% and the “Toxicity % Inhibition at 100 μM (1 dose)” value was found to be 44.8%. In series [2] (Hepatitis C virus), the IC50 is 7.25 µM.
In turn, `Cc1ccc(O)c(-c2nn(C)cc2C#CC(C)(C)C)c1` [VQ_23310] showed an IC50 in series [1] (Hepatitis C virus, 48 h) of 1.15 µM. In addition, in the series with Huh-Luc-Neo cells, the “Toxicity % Inhibition at 50 μM (2 doses)” value came out at 7.1% and the “Toxicity % Inhibition at 100 μM (1 dose)” value is on record as 33.3%. Further, the concentration for half-maximal inhibition (IC50) in series [2] (Hepatitis C virus) was 7.21 µM.
For `COc1ccc(C#Cc2cn(C)nc2-c2cc(Cl)ccc2O)cc1` [VQ_23317], in that order: 2.7 µM, 2.1%, 10.7% and 4.37 µM.
For `Cn1cc(C#CC(C)(C)C)c(-c2cc(Cl)ccc2O)n1` [VQ_23322], in that order: 2.47 µM, 1.5%, 21.5% and 2 µM.
For `CCCCCC#Cc1cn(C)nc1-c1cc(Cl)ccc1O` [VQ_23324], in that order: 0.03 µM, 8.8%, 39.8% and 5.51 µM.
Take `COc1ccc(C#Cc2cn(C)nc2-c2cc(Cl)c(C)cc2O)cc1` [VQ_23374]: the IC50 in series [1] (Hepatitis C virus, 48 h) came to 5.7 µM. Moreover, in the series on Huh-Luc-Neo cells, the “Toxicity % Inhibition at 50 μM (2 doses)” value turned out to be 13.0% and the “Toxicity % Inhibition at 100 μM (1 dose)” value is listed as 19.1%. In series [2] (Hepatitis C virus), the IC50 was determined as 3.92 µM.
As for `COCC#Cc1cn(C)nc1-c1cc(Cl)c(C)cc1O` [VQ_23382], the half-maximal inhibitory concentration (IC50) in series [1] came out at 2.26 µM; in series [1] (Hepatitis C virus, 48 h) it was 3.03 µM. Also, the “Toxicity % Inhibition at 100 μM (1 dose)” value in the series on Huh-Luc-Neo cells was 18.5% and 16.2%.
`Cn1cc(C#CCC2CCCCC2)c(-c2ccccc2O)n1` [VQ_23705] displayed an IC50 in series [1] (Hepatitis C virus, 48 h) of 1.1 µM. Further, in the series on Huh-Luc-Neo cells, the “Toxicity % Inhibition at 50 μM (2 doses)” value worked out at 14.7% and the “Toxicity % Inhibition at 100 μM (1 dose)” value is 26.4%. In addition, in series [2] (Hepatitis C virus), the IC50 was 6.47 µM.
For `Cn1cc(C#Cc2ccc(N)cc2)c(-c2ccccc2O)n1` [VQ_23708], in that order: 0.7 µM, 21.8%, 63.8% and 0.55 µM.
For `Cc1ccc(O)c(-c2nn(C)cc2C#Cc2ccc(N)cc2)c1` [VQ_23714], in that order: 0.1 µM, 33.4%, 31.5% and 1.16 µM.
For `Cn1cc(C#Cc2ccc(N)cc2)c(-c2cc(Cl)ccc2O)n1` [VQ_23720], in that order: 0.3 µM, 32.6%, 49.2% and 1.28 µM.
Consider `Cc1cc(O)c(-c2nn(C)cc2C#CCCCC#N)cc1Cl` [VQ_24691], for which the midpoint of inhibition in series [1] (Hepatitis C virus, 48 h), the IC50, lay at 0.09 µM. In addition, in the series with Huh-Luc-Neo cells, the “Toxicity % Inhibition at 50 μM (2 doses)” value is 28.3% and the “Toxicity % Inhibition at 100 μM (1 dose)” value stood at 21.1%. Further, in series [2] (Hepatitis C virus), the IC50 was 5.13 µM.
In turn, `CCCCCCNc1ccc([N+](=O)[O-])cc1-c1nn(C)cc1C#CC(C)(C)C` [VQ_36663] returned a 50% inhibitory concentration (IC50) in series [1] (Hepatitis C virus, 48 h) of 0.75 µM. In the series on Huh-Luc-Neo cells, the “Toxicity % Inhibition at 50 μM (2 doses)” value turned out to be 23.8% and the “Toxicity % Inhibition at 100 μM (1 dose)” value was 15.5%.
Turning to `COc1ccc(S(=O)(=O)Nc2ccc([N+](=O)[O-])cc2-c2nn(C)cc2C#CC(C)(C)C)cc1` [VQ_36877], the “Toxicity % Inhibition at 100 μM (1 dose)” value with Huh-Luc-Neo cells is listed as 10.9%. In series [2] (Hepatitis C virus), the IC50 came out at 0.2 µM.
For `Cn1cc(C#CC(C)(C)C)c(-c2cc([N+](=O)[O-])ccc2NCc2ccccc2C#N)n1` [VQ_36885], in that order: 35.7% and 0.03 µM.
For `Cn1cc(C#CC(C)(C)C)c(-c2cc([N+](=O)[O-])ccc2NCc2c(Cl)cccc2Cl)n1` [VQ_36886], in the series on Huh-Luc-Neo cells, the “Toxicity % Inhibition at 100 μM (1 dose)” value is recorded as 12.6%. In addition, in series [2] (Hepatitis C virus), the IC50 is 0.19 µM.
For `Cn1cc(C#CC(C)(C)C)c(-c2cc([N+](=O)[O-])ccc2NCc2c(F)c(F)cc(F)c2F)n1` [VQ_36887], in that order: 18.7% and 0.06 µM.
For `Cn1cc(C#CC(C)(C)C)c(-c2cc([N+](=O)[O-])ccc2NCc2ccc(I)cc2)n1` [VQ_36893], in that order: 16.6% and 0.09 µM.
For `Cn1cc(C#CC(C)(C)C)c(-c2cc([N+](=O)[O-])ccc2NCc2c(F)c(F)c(F)c(F)c2F)n1` [VQ_36894], in that order: 12.5% and 0.12 µM.
`Cn1cc(C#CC(C)(C)C)c(-c2cc([N+](=O)[O-])ccc2NCc2cccc3ccccc23)n1` [VQ_36895]: in the series with Huh-Luc-Neo cells, the “Toxicity % Inhibition at 100 μM (1 dose)” value was found to be 10.4%. Further, in series [2] (Hepatitis C virus), the half-maximal inhibitory concentration (IC50) was 0.1 µM.
In the case of `Cn1cc(C#CC(C)(C)C)c(-c2cc([N+](=O)[O-])ccc2NC(=O)c2cc(C(F)(F)F)ccc2F)n1` [VQ_36905], in the series with Huh-Luc-Neo cells, the “Toxicity % Inhibition at 100 μM (1 dose)” value is recorded as 10.9%. Also, the IC50 in series [2] (Hepatitis C virus) came out at 1.63 µM.
For `Cn1cc(C#CC(C)(C)C)c(-c2cc([N+](=O)[O-])ccc2NC(=O)c2ccccc2C(F)(F)F)n1` [VQ_36906], in that order: 14.0% and 2.69 µM.
Turning to `Cn1cc(C#CC(C)(C)C)c(-c2cc([N+](=O)[O-])ccc2NC(=O)COc2ccccc2)n1` [VQ_36907], the “Toxicity % Inhibition at 100 μM (1 dose)” value with Huh-Luc-Neo cells is recorded as 34.7%. For the same molecule, in series [2], the concentration for half-maximal inhibition (IC50) was 0.2 µM.
As to `Cn1cc(C#CC(C)(C)C)c(-c2cc([N+](=O)[O-])ccc2NC(=O)COc2ccccc2)n1` [VQ_36908], in the series with Huh-Luc-Neo cells, the “Toxicity % Inhibition at 100 μM (1 dose)” value came out at 22.7%. In addition, in series [2], the IC50 amounted to 1.72 µM.
